What is called kinetic solubility is the concentration staying in solution when a stock, usually in DMSO, is diluted into the medium. Usually efflux ratio stands for the permeability from basolateral to apical divided by that in the opposite direction, in the common usage. Broadly, the IC50 is the concentration that gives 50% inhibition.

This note sets out measurements from paper PMC10895678 (Journal of Medicinal Chemistry, 2024).

In brackets after ≈: the same amount, converted by molar mass. Where two headings read alike, the source gives them in different places. Bounds are passed on as bounds.

Data set [1] can be described thus: Kinetic solubility (turbidimetry). In kind it is physicochemical. Particulars: PBS pH 7.4, 1% DMSO, 25 °C.
Data set [2] in a line: Caco-2 permeability and efflux. The format is in vitro ADME. Particulars: human, pH 7.4, 2 h; for efflux ratio at 2 h, 10 μM: Caco-2, pH 7.4, 10 μM; for Papp B→A at 2 h, 10 μM: Caco-2, read-out: Caco-2 B-A Paap. The procedure: Compounds were solubilized (10 mM in DMSO), and the CacoReady Kit from ReadyCell S.L. (Barcelona, Spain) was used to determine compound permeability. Differentiated and polarized Caco-2 cells (21-day system) were plated on a 96-transwell permeable system as a single monolayer to allow for automated high throughput screening of compounds, and 10 μM BGAz compound was added to the system in HBSS buffer (pH 7.4) and incubated for 2 h at 37 °C in a CO2 incubator. Lucifer yellow was used as a cell monolayer integrity marker. Drug transport was assessed in both directions [apical to basolateral (A-B) and basolateral to apical (B-A)] across the cell monolayer. […] The BGAz compound concentrations were quantified using a calibration curve following analysis by LC-MS/MS, and the apparent permeability coefficient (Papp) and efflux ratio of the compound across the monolayer were calculated. The efflux ratio is used as an indicator of active efflux. The permeability coefficient (Papp) was calculated from the following equation: [drawing 2] 2 where dQ/dt is the amount of compound in the basal (A-B) or apical (B-A) compartment as a function of time (nmol/s). C0 is the initial concentration in the donor (apical or basal) compartment (Mean of T = 0) (nmol/mL) and A is the area of the transwell (cm^2).
The efflux ratio was then calculated as [drawing 3] 3
All experiments were performed in triplicate, and the MDR1 efflux markers Digoxin, quinidine, and […] were used as positive controls.
In general terms: Caco-2 monolayers are a common model of the intestinal barrier.

A further data set has as its system M. bovis BCG. Nature of the data set: microbe, parasite or virus in culture. The format is cell-based. Particulars: Mycobacterium tuberculosis variant bovis BCG, read-out: BCG MBC.
Another data set relates to C. glutamicum pks13. The experiment in a line: MIC, resazurin assay, C. glutamicum pks13 deletion mutant. The format is cell-based, Corynebacterium glutamicum. Particulars: modified Gompertz function.
Another data set addresses CYP2C19 (Homo sapiens, UniProt P33261). Nature of the data set: biochemical. The format is in vitro ADME. Particulars: for CYP2C19 inhibition (in words) / IC50: human liver microsomes. The procedure:
(§1) Compounds were solubilized to 10 mM in DMSO. The BGAz compounds were incubated at concentrations of 0.003, 0.009, 0.03, 0.08, 0.25, 0.74, 2.2, 6.7, and 20 μM with CYP1A2, CYP2C9, CYP2C19, and CYP2D6 at 37 °C in the presence of the drug-like probe substrate […] the Phase 1 cofactor NADPH (1 mM). The formation of metabolites of the drug-like probe substrates in the absence and presence of the BGAz compound was monitored by LC-MS/MS, and the IC50 value was determined. All assays had two replicates per compound and included a positive control inhibitor.
In general terms: Liver microsomes are vesicles of endoplasmic reticulum, rich in cytochrome P450 enzymes.

In another data set the target is CYP2D6 (Homo sapiens, UniProt P10635). The experiment in a line: biochemical. The format is in vitro ADME. Particulars: human liver microsomes. The procedure:
as §1

The target in the next data set is CYP2C9 (Homo sapiens, UniProt P11712). The experiment in a line: biochemical. In kind it is in vitro ADME. Particulars: for IC50: human liver microsomes. The procedure: as §1
The next data set relates to M. tb H37Ra::pTYOK. In kind it is cell-based, Mycobacterium tuberculosis. The note with it: autoluminescent strain, >50% RLU inhibition on day 3.
The next data set deals with hERG (Homo sapiens, UniProt Q12809). The experiment in a line: in vitro. The format is cell-based. The note with it: for IC50: CHO cells expressing hERG, eight-point curve. The procedure:
Compounds were solubilized to 30 mM in DMSO before dilution in PBS to […]. […] Eight-point concentration–response curves were generated using 3.16-fold serial dilutions from the top test concentration. Electrophysiological recordings were made from a Chinese Hamster Ovary cell line stably expressing the full length hERG channel. Single cell ionic currents were measured in the perforated patch clamp configuration (100 μg mL^–1 amphotericin) at room temperature (21–23 °C) using an IonWorks Quattro instrument (Molecular Devices). The internal solution contained (mM) 140 KCl, 1 MgCl2, 1 EGTA, and 20 HEPES and was buffered to pH 7.3. The external solution [PBS contained (mM): 138 NaCl, 2.7 KCl, 0.9 CaCl2, 0.5 MgCl2, 8 Na2HPO4, and 1.5 KH2PO4 buffered to pH 7.4]. Cells were clamped at a holding potential of −70 mV for 30 s and then stepped to +40 mV for one second. This was followed by a hyperpolarising step of 1 s to −30 mV to evoke the hERG tail current. Currents were measured from the tail step and referenced to the holding current. Compounds were then incubated for 3–4 min prior to a second measurement of the hERG signal using an identical pulsetrain.

Where [3] appears, read: preincubated 30 min prior to NADPH, read-out: CYP2C19 [pre-inc] IC50.
Where [4] appears, read: without pre-incubation, read-out: CYP2C19 IC50.
The mark [5] stands for this setting: preincubated 30 min prior to NADPH, read-out: CYP2D6 [pre-inc] IC50.
Setting [6] is: without pre-incubation, read-out: CYP2D6 IC50.
The mark [7] stands for this setting: preincubated 30 min prior to NADPH, read-out: CYP2C9 [pre-inc] IC50.
Where [8] appears, read: without pre-incubation, read-out: CYP2C9 IC50.

Chain of CYP2C19 (P33261 whole entry): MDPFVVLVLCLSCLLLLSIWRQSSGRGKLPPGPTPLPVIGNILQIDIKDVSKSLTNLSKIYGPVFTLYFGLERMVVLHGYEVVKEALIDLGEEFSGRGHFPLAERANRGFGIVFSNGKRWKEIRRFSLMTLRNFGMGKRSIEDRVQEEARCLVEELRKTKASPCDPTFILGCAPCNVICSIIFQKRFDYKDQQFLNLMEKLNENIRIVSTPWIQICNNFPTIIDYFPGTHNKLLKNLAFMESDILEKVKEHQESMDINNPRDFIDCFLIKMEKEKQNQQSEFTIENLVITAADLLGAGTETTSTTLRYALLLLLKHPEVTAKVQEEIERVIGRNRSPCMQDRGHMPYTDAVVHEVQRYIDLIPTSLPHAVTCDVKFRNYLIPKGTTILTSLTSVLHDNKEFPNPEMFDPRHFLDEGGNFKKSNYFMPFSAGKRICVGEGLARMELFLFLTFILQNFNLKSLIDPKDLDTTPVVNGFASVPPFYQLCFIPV
Chain of CYP2D6 (P10635 whole entry): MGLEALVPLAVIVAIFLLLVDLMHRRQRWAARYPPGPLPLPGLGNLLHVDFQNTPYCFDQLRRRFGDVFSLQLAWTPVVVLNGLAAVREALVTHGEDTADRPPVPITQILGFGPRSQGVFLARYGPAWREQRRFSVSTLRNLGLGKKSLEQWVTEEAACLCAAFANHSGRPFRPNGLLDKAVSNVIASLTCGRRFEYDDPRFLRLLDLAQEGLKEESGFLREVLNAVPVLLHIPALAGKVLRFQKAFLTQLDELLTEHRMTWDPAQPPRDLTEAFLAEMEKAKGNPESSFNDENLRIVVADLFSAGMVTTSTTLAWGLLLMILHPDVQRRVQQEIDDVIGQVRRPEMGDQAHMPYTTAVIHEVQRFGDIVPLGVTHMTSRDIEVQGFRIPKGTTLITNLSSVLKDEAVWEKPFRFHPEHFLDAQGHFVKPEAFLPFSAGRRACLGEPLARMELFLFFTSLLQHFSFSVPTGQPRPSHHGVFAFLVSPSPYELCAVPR
Chain of CYP2C9 (P11712 whole entry): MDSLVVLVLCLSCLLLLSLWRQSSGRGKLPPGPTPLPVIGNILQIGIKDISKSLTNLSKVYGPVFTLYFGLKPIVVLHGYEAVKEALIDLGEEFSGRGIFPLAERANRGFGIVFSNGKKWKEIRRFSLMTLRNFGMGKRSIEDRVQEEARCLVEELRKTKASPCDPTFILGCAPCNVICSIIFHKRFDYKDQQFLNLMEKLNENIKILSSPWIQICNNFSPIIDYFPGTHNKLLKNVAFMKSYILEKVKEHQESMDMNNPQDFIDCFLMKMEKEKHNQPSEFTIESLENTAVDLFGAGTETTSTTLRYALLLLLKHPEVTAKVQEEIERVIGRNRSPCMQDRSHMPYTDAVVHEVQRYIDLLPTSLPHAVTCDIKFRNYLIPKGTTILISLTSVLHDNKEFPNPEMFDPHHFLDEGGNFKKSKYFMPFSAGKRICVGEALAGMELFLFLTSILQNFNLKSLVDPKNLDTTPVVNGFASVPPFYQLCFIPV
Chain of hERG (Q12809 whole entry): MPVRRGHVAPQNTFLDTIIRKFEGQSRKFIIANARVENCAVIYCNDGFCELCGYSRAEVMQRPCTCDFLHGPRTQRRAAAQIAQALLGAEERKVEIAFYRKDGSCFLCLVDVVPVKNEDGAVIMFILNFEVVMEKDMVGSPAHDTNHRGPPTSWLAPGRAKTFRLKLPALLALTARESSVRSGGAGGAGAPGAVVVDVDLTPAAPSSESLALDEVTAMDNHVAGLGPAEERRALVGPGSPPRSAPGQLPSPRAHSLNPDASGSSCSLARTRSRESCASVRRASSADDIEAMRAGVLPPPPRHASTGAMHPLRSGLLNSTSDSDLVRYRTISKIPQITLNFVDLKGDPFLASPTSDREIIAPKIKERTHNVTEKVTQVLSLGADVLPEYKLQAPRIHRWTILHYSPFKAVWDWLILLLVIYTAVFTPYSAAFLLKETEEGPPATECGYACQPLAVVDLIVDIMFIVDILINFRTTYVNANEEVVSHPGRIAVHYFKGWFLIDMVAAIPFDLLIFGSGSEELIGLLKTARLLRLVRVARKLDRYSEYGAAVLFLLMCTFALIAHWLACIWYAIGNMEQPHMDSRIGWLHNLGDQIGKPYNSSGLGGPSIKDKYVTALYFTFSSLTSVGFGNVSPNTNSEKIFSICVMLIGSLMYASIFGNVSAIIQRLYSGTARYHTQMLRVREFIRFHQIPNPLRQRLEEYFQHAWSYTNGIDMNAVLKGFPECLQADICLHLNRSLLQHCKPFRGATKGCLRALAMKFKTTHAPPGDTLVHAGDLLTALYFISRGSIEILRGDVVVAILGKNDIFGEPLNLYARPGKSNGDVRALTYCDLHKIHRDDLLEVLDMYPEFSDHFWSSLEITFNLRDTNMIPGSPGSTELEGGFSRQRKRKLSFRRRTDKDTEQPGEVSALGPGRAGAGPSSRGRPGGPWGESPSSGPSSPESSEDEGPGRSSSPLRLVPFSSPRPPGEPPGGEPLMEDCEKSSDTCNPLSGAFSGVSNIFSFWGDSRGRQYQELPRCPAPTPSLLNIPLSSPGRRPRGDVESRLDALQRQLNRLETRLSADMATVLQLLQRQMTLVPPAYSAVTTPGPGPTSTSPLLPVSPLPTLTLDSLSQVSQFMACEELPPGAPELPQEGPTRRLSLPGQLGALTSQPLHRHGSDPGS

On to `FC(F)(F)Oc1ccc(C2CC(CN3CCCC3)N2Cc2ccccc2OC(F)(F)F)cc1` (centres unmarked) [BGAz-002], for which the kinetic solubility at 5 min in data set [1] amounted to 57 µM (≈ 27 µg/mL). Further, the efflux ratio at 2 h, 10 μM in data set [2] came out at 1.2. In addition, the Papp B→A at 2 h, 10 μM in data set [2] stood at 2.8 ×10⁻⁶ cm/s. Also, in the data set with M. bovis BCG, the MBC was in the range of 12 to 25 µM (≈ 5.69 to 11.9 µg/mL). For the same molecule, the “C. glutamicum pks13 MIC” value with C. glutamicum pks13 worked out at 50. Besides, the “CYP2C19 inhibition (in words)” value on CYP2C19 is “negligible inhibition”. The IC50 at CYP2C19 (setting [3]) was more than 20 µM; at CYP2C19 (setting [4]) it was more than 20 µM; at CYP2D6 (setting [5]), 0.08 µM; on CYP2D6 (setting [6]) it was 0.19 µM; at CYP2C9 (setting [7]) it was more than 20 µM; on CYP2C9 (setting [8]) it was more than 20 µM. The IC50 against hERG (human, CHO cells stably expressing hERG, pH 7.4) was more than 167 µM. Also, the “CYP2D6 inhibition (in words)” value on CYP2D6 is recorded as “significant inhibition”. Besides, in the data set on M. tb H37Ra::pTYOK, the “M. tb H37Ra::pTY OK MIClux50” value is reported as 9.2 μM. The inhibition at 167 µM at hERG (human, pH 7.4, 167 μM, read-out: hERG inhibition at top test concentration) is less than 50%.
Turning to `Brc1cc(Br)cc(C2CC(CN3CCCC3)N2Cc2ccccc2Br)c1` (centres unmarked) [BGAz-004], in data set [1], the solubility (kinetic) at 5 min was 9 µM (≈ 4.89 µg/mL). For the same molecule, the efflux ratio at 2 h, 10 μM in data set [2] amounted to 1.4. Further, in [2], the Papp B→A at 2 h, 10 μM was found to be 0.5 ×10⁻⁶ cm/s. For the same molecule, the MBC in the data set with M. bovis BCG is 12 to 25 µM (≈ 6.52 to 13.6 µg/mL). Further, the “C. glutamicum pks13 MIC” value in the data set with C. glutamicum pks13 is 10. Moreover, the IC50 on CYP2C19 (setting [3]) is 2.04 µM; at CYP2C19 (setting [4]) it was more than 15.1 µM; at CYP2D6 (setting [5]) it was 1.05 µM; on CYP2D6 (setting [6]) it was 1.97 µM; at CYP2C9 (setting [7]), 17.8 µM; at CYP2C9 (setting [8]), more than 20 µM. The same molecule came in with an IC50 against hERG of 25 µM. Further, on CYP2C19 (preincubated for 30 min prior to initiation of catalysis), the “CYP2C19 inhibition (in words), preincubated” value is “strong inhibitory activity”. On CYP2D6, the “CYP2D6 inhibition (in words)” value was “significant inhibition”. Further, the “CYP2C9 inhibition (in words)” value on CYP2C9 (preincubated for 30 min prior to the addition of NADPH) is “minimal CYP2C9 inhibition”. Also, the “M. tb H37Ra::pTY OK MIClux50” value in the data set with M. tb H37Ra::pTYOK was determined as 7.03 μM.
Molecule `CNCC1CC(c2ccc(OC(F)(F)F)cc2)N1Cc1ccccc1OC(F)(F)F` (centres unmarked) [BGAz-005] came in with a solubility (kinetic) at 5 min in data set [1] of 117 µM (≈ 50.8 µg/mL). Besides, in data set [2], the efflux ratio at 2 h, 10 μM is less than 1. In addition, the Papp B→A at 2 h, 10 μM in data set [2] was 1.4 ×10⁻⁶ cm/s. In the data set on M. bovis BCG, the MBC was 12 to 25 µM (≈ 5.21 to 10.9 µg/mL). Moreover, the “C. glutamicum pks13 MIC” value with C. glutamicum pks13 was 10. The “CYP2C19 inhibition (in words)” value on CYP2C19 is given as “negligible inhibition”. Also, the IC50 on CYP2C19 (setting [3]) is 15.8 µM; on CYP2C19 (setting [4]), more than 20 µM; on CYP2D6 (setting [5]) it was 0.01 µM; at CYP2D6 (setting [6]), 0.06 µM; at CYP2C9 (setting [7]) it was more than 20 µM; on CYP2C9 (setting [8]) it was more than 20 µM. Also, the IC50 against hERG was 12.7 µM. Besides, on CYP2D6, the “CYP2D6 inhibition (in words)” value is reported as “significant inhibition”. In addition, the “M. tb H37Ra::pTY OK MIClux50” value with M. tb H37Ra::pTYOK is listed as 4.5 μM.
